Reference: ChEMBL document CHEMBL1201862, “PubChem BioAssay data set” (2004)
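Cultured in 96-well plates, cells were exposed to test compound for 48 hours across five concentrations. GI50 is the concentration that inhibits growth by half.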 Calls of active or inactive are those of the source. Cut-off read from the data, not from the text of the source: active = GI50 up to about 1.1 µM and inactive = higher.

Assays:
Assay in all cases: inhibition of tumour cell growth, NCI panel, 48 h
[1] = tested on: DLD-1
[2] = tested on: DMS-114
[3] = tested on: HOP-18
[4] = tested on: DMS-273
[5] = tested on: XF498
[6] = tested on: SNB-78
[7] = tested on: LXFL 529
[8] = tested on: RXF 631
[9] = tested on: M19-MEL

With `C1COCCSC2=C(SCCO1)SC(=C1SC3=C(SCCOCCOCCS3)S1)S2` the GI50 [1] was > 100 µM (inactive), the GI50 [2] was 63.5 µM (inactive) and the GI50 [3] was > 100 µM (inactive). For the same compound, the GI50 [4] was > 100 µM (inactive), the GI50 [5] was 28.6 µM (inactive) and the GI50 [6] was 38 µM (inactive). For the same compound, the GI50 [7] was > 100 µM (inactive).
In the case of `O=C1NC2(NC(=O)C1=O)Nc1ccccc1S2`, the GI50 [1] is reported as 23.7 µM (inactive), the GI50 [8] is reported as 20 µM (inactive) and the GI50 [2] is reported as 28.4 µM (inactive). The GI50 [3] was > 100 µM (inactive), the GI50 [4] was 42.1 µM (inactive) and the GI50 [6] was > 67.1 µM (inactive). For the same compound, the GI50 [7] was 36.6 µM (inactive).
For `CC1=C(C(=O)Nc2ccc(Cl)c(Cl)c2)C(c2ccco2)C(C(=O)Nc2ccc(Cl)c(Cl)c2)=C(C)N1`, the GI50 [1] was 10.3 µM (inactive), the GI50 [8] was 12.9 µM (inactive) and the GI50 [2] was 9.16 µM (inactive). The GI50 [3] was 12.5 µM (inactive), the GI50 [4] was 16 µM (inactive) and the GI50 [9] was 11.8 µM (inactive). For the same compound, the GI50 [5] was 1.11 µM (active), the GI50 [6] was 17.3 µM (inactive) and the GI50 [7] was 11.9 µM (inactive).
`CC(c1ccccc1)N1O[C@]12CC[C@@]1(C)C(CCCC13OCCO3)C2` (stereo partly specified) was tested, and the GI50 [1] was 17.1 µM (inactive), the GI50 [2] was 13.4 µM (inactive) and the GI50 [4] was 19.2 µM (inactive). For the same compound, the GI50 [9] was 23 µM (inactive), the GI50 [5] was 22.5 µM (inactive) and the GI50 [6] was 20.3 µM (inactive).
With `CC(=O)N(C(C)=O)C1=C2c3ccccc3N(S(=O)(=O)c3ccccc3)C2n2c(=O)n(-c3ccccc3)c(=O)n2C1` (stereo unspecified) the GI50 [1] was 32.6 µM (inactive), the GI50 [3] was 22 µM (inactive) and the GI50 [4] was 44.2 µM (inactive). The GI50 [9] was 27.1 µM (inactive) and the GI50 [7] was 39.7 µM (inactive).
For `O=C(O)\C=C/C=C/C=C/C=C/C(=O)O`, the GI50 [1] was > 100 µM (inactive), the GI50 [2] was > 100 µM (inactive) and the GI50 [3] was > 100 µM (inactive). The GI50 [4] was > 100 µM (inactive), the GI50 [6] was > 100 µM (inactive) and the GI50 [7] was > 100 µM (inactive).
`N#Cc1sc2nc3c(c(-c4ccccc4)c2c1N)CCCC3` was tested, and the GI50 [8] was 9.25 µM (inactive), the GI50 [2] was 0.225 µM (active) and the GI50 [4] was 57.9 µM (inactive). For the same compound, the GI50 [9] was > 100 µM (inactive), the GI50 [5] was 37.9 µM (inactive) and the GI50 [6] was 56 µM (inactive). The GI50 [7] was > 100 µM (inactive).
In the case of `NC(=O)N/N=C(/Cc1nc2ccc(C(=O)c3ccccc3)cc2nc1O)C(=O)Nc1ccc(C(F)(F)F)cc1[N+](=O)[O-]`, the GI50 [1] is reported as > 100 µM (inactive), the GI50 [8] is reported as 47 µM (inactive) and the GI50 [2] is reported as 52.1 µM (inactive). For the same compound, the GI50 [3] was 60.3 µM (inactive), the GI50 [4] was 51.9 µM (inactive) and the GI50 [9] was > 100 µM (inactive). The GI50 [5] was 38.6 µM (inactive), the GI50 [6] was > 100 µM (inactive) and the GI50 [7] was 45.5 µM (inactive).
In the case of `C#CCOCn1cnc2c(S)ncnc21`, the GI50 [1] is reported as > 100 µM (inactive), the GI50 [8] is reported as > 100 µM (inactive) and the GI50 [2] is reported as > 100 µM (inactive). For the same compound, the GI50 [4] was > 100 µM (inactive), the GI50 [9] was > 100 µM (inactive) and the GI50 [5] was > 100 µM (inactive). For the same compound, the GI50 [7] was > 100 µM (inactive).
With `O=C1/C(=C/c2ccccc2Cl)COc2ccc(Br)cc21` the GI50 [1] was 65.9 µM (inactive), the GI50 [2] was 38.3 µM (inactive) and the GI50 [3] was 54.1 µM (inactive). The GI50 [4] was 32.3 µM (inactive), the GI50 [9] was > 100 µM (inactive) and the GI50 [5] was 27.2 µM (inactive). The GI50 [6] was 43.1 µM (inactive) and the GI50 [7] was 63 µM (inactive).
In the case of `Nc1cc2c(C3OC(CO)C(O)C3O)n[nH]c2c(=S)[nH]1` (stereo unspecified), the GI50 [1] is reported as > 100 µM (inactive), the GI50 [8] is reported as > 100 µM (inactive) and the GI50 [2] is reported as > 100 µM (inactive). The GI50 [4] was > 100 µM (inactive), the GI50 [9] was > 100 µM (inactive) and the GI50 [5] was > 100 µM (inactive). The GI50 [6] was > 100 µM (inactive) and the GI50 [7] was > 100 µM (inactive).
With `CC12C=C[C@]3(CC[C@@H]4[C@@](C)(CO)CCC[C@]4(C)C3CC1)C2` (stereo partly specified) the GI50 [1] was > 10 µM (inactive), the GI50 [2] was 15.5 µM (inactive) and the GI50 [4] was 16.1 µM (inactive). The GI50 [9] was 19.2 µM (inactive), the GI50 [5] was 19.6 µM (inactive) and the GI50 [6] was 18.6 µM (inactive). The GI50 [7] was 16.9 µM (inactive).
`CCCCCN(CCCCC)C(=O)[C@H](CCC(=O)O)NC(=O)c1cc2ccccc2[nH]1` was tested, and the GI50 [1] was 38.3 µM (inactive), the GI50 [2] was 52.5 µM (inactive) and the GI50 [4] was 49.2 µM (inactive). For the same compound, the GI50 [9] was 45.5 µM (inactive), the GI50 [5] was 44.9 µM (inactive) and the GI50 [6] was 95.1 µM (inactive). For the same compound, the GI50 [7] was 56.6 µM (inactive).
With `CCc1ccc(/C=C\c2cc(OC)c(OC)c(OC)c2)cc1` the GI50 [1] was 0.378 µM (active), the GI50 [2] was 0.0508 µM (active) and the GI50 [3] was 0.48 µM (active). For the same compound, the GI50 [4] was 0.305 µM (active), the GI50 [9] was 0.163 µM (active) and the GI50 [6] was 0.15 µM (active). For the same compound, the GI50 [7] was 0.211 µM (active).
With `CC(=O)OCC1OC(n2cc(I)c(=O)[nH]c2=O)C(OC(C)=O)C(OC(C)=O)C1OC(C)=O` (stereo unspecified) the GI50 [1] was > 100 µM (inactive), the GI50 [2] was > 100 µM (inactive) and the GI50 [3] was > 100 µM (inactive). For the same compound, the GI50 [4] was > 100 µM (inactive), the GI50 [9] was > 100 µM (inactive) and the GI50 [5] was > 100 µM (inactive). For the same compound, the GI50 [7] was > 100 µM (inactive).
In the case of `O=c1nc2sc3ccc4ccccc4c3n2nc1O`, the GI50 [1] is reported as 40.9 µM (inactive), the GI50 [2] is reported as 75.2 µM (inactive) and the GI50 [3] is reported as 71.3 µM (inactive). The GI50 [4] was 39.8 µM (inactive), the GI50 [6] was 70.3 µM (inactive) and the GI50 [7] was 68.1 µM (inactive).
In the case of `O=C(OC[C@H]1O[C@@H](OC(=O)c2cc(O)c(O)c(O)c2)[C@H](OC(=O)c2cc(O)c(O)c(O)c2)[C@@H](OC(=O)c2cc(O)c(O)c(O)c2)[C@@H]1OC(=O)c1cc(O)c(O)c(O)c1)c1cc(O)c(O)c(O)c1` [PENTAGALLOYL GLUCOSE], the GI50 [1] is reported as 7 µM (inactive), the GI50 [2] is reported as 4.21 µM (inactive) and the GI50 [3] is reported as 36.6 µM (inactive). The GI50 [4] was 1.46 µM (inactive), the GI50 [9] was 9.14 µM (inactive) and the GI50 [5] was 4.85 µM (inactive). The GI50 [6] was 9.51 µM (inactive) and the GI50 [7] was 11.4 µM (inactive).
`CC1(C)OC(=O)C(=Cc2ccc(O)cc2)C(=O)O1` was tested, and the GI50 [2] was > 100 µM (inactive), the GI50 [4] was > 100 µM (inactive) and the GI50 [9] was > 100 µM (inactive). The GI50 [5] was > 100 µM (inactive), the GI50 [6] was > 100 µM (inactive) and the GI50 [7] was > 100 µM (inactive).
`O=[As]O` was tested, and the GI50 [1] was 17.8 µM (inactive), the GI50 [8] was 10.1 µM (inactive) and the GI50 [2] was 13.1 µM (inactive). The GI50 [4] was 24.2 µM (inactive), the GI50 [9] was 20.5 µM (inactive) and the GI50 [5] was 17.5 µM (inactive). For the same compound, the GI50 [6] was 12.6 µM (inactive) and the GI50 [7] was 16.2 µM (inactive).
In the case of `c1ccc(COc2cccc3cccnc23)cc1`, the GI50 [1] is reported as > 100 µM (inactive), the GI50 [8] is reported as > 100 µM (inactive) and the GI50 [2] is reported as 36.3 µM (inactive). For the same compound, the GI50 [3] was 21.6 µM (inactive), the GI50 [9] was 67.3 µM (inactive) and the GI50 [5] was 70.8 µM (inactive). For the same compound, the GI50 [7] was 47.8 µM (inactive).
With `CC1=NN(C(=O)CC(=O)NC(=O)CC(=O)Nc2ccccc2F)C(=O)C1/N=N/c1ccc([N+](=O)[O-])cc1` (stereo unspecified) the GI50 [1] was 42.3 µM (inactive), the GI50 [8] was 30.2 µM (inactive) and the GI50 [2] was 21.1 µM (inactive). For the same compound, the GI50 [3] was 31.5 µM (inactive), the GI50 [4] was 39.1 µM (inactive) and the GI50 [9] was 30.3 µM (inactive). For the same compound, the GI50 [5] was 28.3 µM (inactive), the GI50 [6] was > 100 µM (inactive) and the GI50 [7] was 37.2 µM (inactive).
`C/C(=N\O)C(CN1CCCCC1)C(c1ccccc1)c1c(O)c2ccccc2oc1=O` (stereo unspecified) was tested, and the GI50 [1] was > 100 µM (inactive), the GI50 [2] was > 100 µM (inactive) and the GI50 [9] was > 100 µM (inactive). The GI50 [5] was > 100 µM (inactive) and the GI50 [7] was > 100 µM (inactive).
For `Nc1ccc(/C=C/c2ccnc3ccccc23)cc1`, the GI50 [1] was 22.9 µM (inactive), the GI50 [2] was 15.1 µM (inactive) and the GI50 [4] was 18.1 µM (inactive). For the same compound, the GI50 [9] was 31 µM (inactive) and the GI50 [7] was 19.7 µM (inactive).
